#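 How tested: cells in 96-well plates exposed to compound for 48 hours at five concentrations. At the TGI there is no net growth.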
# Legend:
# Experiment in all cases: NCI tumour cell line growth inhibition, 48 h
# [1] = test system: MDA-MB-435
# [2] = test system: HS 578T breast
# [3] = test system: SF-539 CNS
# [4] = test system: OVCAR-8 ovarian
# [5] = test system: IGROV1 ovarian
# [6] = test system: LOX IMVI melanoma
# [7] = test system: SK-MEL-2 melanoma
# [8] = test system: T-47D breast
# [9] = test system: MCF7 breast
# [10] = test system: HOP-92 NSCLC
# [11] = test system: A549 NSCLC
# [12] = test system: MALME-3M melanoma
# [13] = test system: A498 renal
# [14] = test system: SF-268 CNS
SMILES,TGI [1],TGI [2],TGI [3],TGI [4],TGI [5],TGI [6],TGI [7],TGI [8],TGI [9],TGI [10],TGI [11],TGI [12],TGI [13],TGI [14]
CCCC(=O)OC[n+]1cccc(-c2c(COC(=O)NC(C)C)c(COC(=O)NC(C)C)c3n2CCC3)c1,> 100 µM,> 100 µM,60.9 µM,> 100 µM,> 100 µM,> 100 µM,> 100 µM,> 100 µM,> 100 µM,> 88.7 µM,> 100 µM,> 100 µM,> 61.6 µM,> 100 µM
N#CC(C#N)=C(N)/C(C#N)=C/c1cc(O)c(O)c(Br)c1,> 100 µM,> 100 µM,> 100 µM,> 100 µM,> 100 µM,> 100 µM,> 100 µM,> 100 µM,> 100 µM,> 100 µM,> 100 µM,> 100 µM,> 100 µM,> 100 µM
O=C(Nc1ccccc1C(=O)O)/C(=C/c1ccccc1)NC(=O)c1ccccc1,> 100 µM,> 100 µM,> 100 µM,> 100 µM,> 100 µM,> 100 µM,> 100 µM,> 100 µM,> 100 µM,> 100 µM,> 100 µM,> 100 µM,> 100 µM,> 100 µM
O=c1cc(-c2ccccc2)oc2ccc(Oc3nnnn3-c3ccccc3)cc12,> 41.9 µM,> 83 µM,> 86.8 µM,> 100 µM,> 100 µM,> 100 µM,> 84.5 µM,> 100 µM,> 100 µM,58.1 µM,> 100 µM,> 100 µM,> 100 µM,25.3 µM
O=C1CC(=O)c2c(Cl)sc(Cl)c21,> 100 µM,93.9 µM,> 100 µM,> 100 µM,> 100 µM,> 100 µM,> 100 µM,> 100 µM,> 100 µM,> 100 µM,> 100 µM,67.2 µM,> 100 µM,> 100 µM
CC(=O)Nc1cc2c(cc1O)CC[C@@H]1[C@@H]2CC[C@]2(C)[C@@H](O)CC[C@@H]12,50.8 µM,> 100 µM,> 100 µM,> 100 µM,> 100 µM,> 100 µM,–,95.8 µM,> 100 µM,> 100 µM,> 100 µM,> 100 µM,70.7 µM,68.8 µM
COc1cc2c(cc1OC)C1(c3ccccc3)CN(C2)Cc2cc(OC)c(OC)cc21,54.8 µM,75.5 µM,41.9 µM,> 100 µM,> 100 µM,> 100 µM,70.1 µM,> 100 µM,> 100 µM,> 100 µM,> 100 µM,> 100 µM,> 100 µM,> 100 µM
O=C1NC(=O)C(C(c2ccc(Cl)cc2)C2C(=O)NC(=O)NC2=O)C(=O)N1,> 100 µM,> 100 µM,–,> 100 µM,> 100 µM,> 100 µM,> 100 µM,> 100 µM,> 100 µM,> 100 µM,> 100 µM,> 100 µM,> 100 µM,–
CN(C)C=Nc1cccc2cnccc12,> 100 µM,> 100 µM,> 100 µM,> 100 µM,> 100 µM,> 100 µM,> 100 µM,> 100 µM,> 100 µM,> 100 µM,> 100 µM,> 100 µM,> 100 µM,> 100 µM
Cc1c(CCCl)c(N=[N+]=[N-])n2c(nc3ccccc32)c1C#N,2.73 µM,2.43 µM,3.5 µM,5.21 µM,1.64 µM,2.37 µM,3.48 µM,3.18 µM,2.14 µM,2.61 µM,5.95 µM,2.9 µM,3.85 µM,5.67 µM
CC1=CCC[C@@H]2[C@@](C)(Cc3cc(O)ccc3O)[C@H](C)CC[C@@]12C,19.5 µM,20.6 µM,18.4 µM,16.7 µM,18.2 µM,17.7 µM,27.9 µM,20.1 µM,18.7 µM,15.2 µM,17.6 µM,33.1 µM,32.7 µM,24 µM
CCCN(CCCCN1C(=O)c2ccccc2C1=O)CC1COc2ccccc2O1 (stereo not given),> 100 µM,> 100 µM,> 100 µM,> 100 µM,> 100 µM,> 100 µM,> 100 µM,> 100 µM,> 100 µM,> 100 µM,> 100 µM,> 100 µM,> 100 µM,> 100 µM
O=[N+]([O-])c1cccc2nc3ccccc3c(NCCCN3CCOCC3)c12,0.0242 µM,> 100 µM,0.138 µM,0.141 µM,0.084 µM,1.66 µM,0.0362 µM,0.241 µM,0.103 µM,0.0434 µM,0.0674 µM,0.026 µM,0.0377 µM,0.744 µM
CC(C)N=C(NC#N)NS(=O)(=O)c1cnccc1Nc1ccc(Cl)cc1,> 100 µM,> 100 µM,–,> 100 µM,> 100 µM,–,> 100 µM,> 100 µM,> 100 µM,–,> 100 µM,> 100 µM,> 100 µM,> 100 µM
COC(=NCCC1=CCCCC1)OC,> 100 µM,> 100 µM,–,> 100 µM,> 100 µM,–,> 100 µM,> 100 µM,> 100 µM,> 100 µM,> 100 µM,> 100 µM,> 100 µM,> 100 µM
COc1ccc(N[C@H](CS(=O)c2ccc(C)cc2)C(F)(F)C(F)(F)F)cc1 (stereo not given in full),> 100 µM,> 100 µM,> 100 µM,> 100 µM,> 100 µM,> 100 µM,–,> 100 µM,> 100 µM,64.5 µM,> 100 µM,> 100 µM,> 100 µM,> 100 µM

# Source: PubChem BioAssay (NCI)
